# Experimental data: PubChem BioAssay (NCI)
#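 Method: 48-hour compound exposure of cells in 96-well plates, five concentrations, linear interpolation of endpoints. GI50: concentration for 50% inhibition of growth. TGI marks complete inhibition of growth.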
# Key:
# Assay in all cases: DTP human tumour cell line panel, 48 h
# SNB-19 CNS = tested on: SNB-19 CNS
# RXF-631 renal = tested on: RXF-631 renal
# HOP-92 NSCLC = tested on: HOP-92 NSCLC
# IGROV1 ovarian = tested on: IGROV1 ovarian
# NCI-H460 lung = tested on: NCI-H460 lung
# LXFL 529 NSCLC = tested on: LXFL 529 NSCLC
# SK-MEL-2 melanoma = tested on: SK-MEL-2 melanoma
# SF-539 CNS = tested on: SF-539 CNS
# SR leukemia = tested on: SR leukemia
# OVCAR-3 ovarian = tested on: OVCAR-3 ovarian
# RXF 393 renal = tested on: RXF 393 renal
# HCC-2998 colon = tested on: HCC-2998 colon
# HT29 colon = tested on: HT29 colon
# HL-60(TB) leukemia = tested on: HL-60(TB) leukemia
# CCRF-CEM leukemia = tested on: CCRF-CEM leukemia
# U251 CNS = tested on: U251 CNS
# TK-10 renal = tested on: TK-10 renal
# SK-MEL-28 melanoma = tested on: SK-MEL-28 melanoma
# NCI-H23 lung = tested on: NCI-H23 lung
# SK-OV-3 ovarian = tested on: SK-OV-3 ovarian
# K-562 leukemia = tested on: K-562 leukemia
# COLO 205 colon = tested on: COLO 205 colon
# HCT-15 colon = tested on: HCT-15 colon
# UO-31 renal = tested on: UO-31 renal
# OVCAR-4 ovarian = tested on: OVCAR-4 ovarian
# 786-0 renal = tested on: 786-0 renal
# DMS 114 small cell lung = tested on: DMS 114 small cell lung
# EKVX NSCLC = tested on: EKVX NSCLC
# MALME-3M melanoma = tested on: MALME-3M melanoma
# SF-295 CNS = tested on: SF-295 CNS
# RPMI-8226 leukemia = tested on: RPMI-8226 leukemia
# KM12 colon = tested on: KM12 colon
# MOLT-4 leukemia = tested on: MOLT-4 leukemia
# NCI-H522 lung = tested on: NCI-H522 lung
# LOX IMVI melanoma = tested on: LOX IMVI melanoma
# KM20L2 colon = tested on: KM20L2 colon
# OVCAR-5 ovarian = tested on: OVCAR-5 ovarian
# SW-620 colon = tested on: SW-620 colon
# SNB-75 CNS = tested on: SNB-75 CNS
# M14 melanoma = tested on: M14 melanoma
# NCI-H226 lung = tested on: NCI-H226 lung
# OVCAR-8 ovarian = tested on: OVCAR-8 ovarian
# HCT-116 colon = tested on: HCT-116 colon
# XF 498 CNS = tested on: XF 498 CNS
# A498 renal = tested on: A498 renal
# SK-MEL-5 melanoma = tested on: SK-MEL-5 melanoma
# ACHN renal = tested on: ACHN renal
# M19-MEL melanoma = tested on: M19-MEL melanoma
# A549 NSCLC = tested on: A549 NSCLC
# SNB-78 CNS = tested on: SNB-78 CNS
# DMS 273 small cell lung = tested on: DMS 273 small cell lung
# UACC-257 melanoma = tested on: UACC-257 melanoma
# UACC-62 melanoma = tested on: UACC-62 melanoma
# CAKI-1 renal = tested on: CAKI-1 renal
# SN12C renal = tested on: SN12C renal
# HOP-62 NSCLC = tested on: HOP-62 NSCLC
structure (smiles),measurement,setting,value
CCC[CH2][Sn]1([CH2]CCC)[O]CC(Cc2ccccc2)[O]1 (configuration not stated),GI50,SNB-19 CNS,3.45 µM
same,TGI,SNB-19 CNS,11.7 µM
same,GI50,RXF-631 renal,1.57 µM
same,TGI,RXF-631 renal,2.94 µM
same,GI50,HOP-92 NSCLC,2.9 µM
same,TGI,HOP-92 NSCLC,8.67 µM
same,GI50,IGROV1 ovarian,3.8 µM
same,TGI,IGROV1 ovarian,13.8 µM
same,GI50,NCI-H460 lung,11 µM
same,TGI,NCI-H460 lung,23.4 µM
same,GI50,LXFL 529 NSCLC,1.15 µM
same,TGI,LXFL 529 NSCLC,2.39 µM
same,GI50,SK-MEL-2 melanoma,1.54 µM
same,TGI,SK-MEL-2 melanoma,3.45 µM
same,GI50,SF-539 CNS,1.87 µM
same,TGI,SF-539 CNS,4.15 µM
same,GI50,SR leukemia,1.35 µM
same,TGI,SR leukemia,4.84 µM
same,GI50,OVCAR-3 ovarian,2.34 µM
same,TGI,OVCAR-3 ovarian,7.42 µM
same,GI50,RXF 393 renal,1.47 µM
same,TGI,RXF 393 renal,2.84 µM
same,GI50,HCC-2998 colon,7.25 µM
same,TGI,HCC-2998 colon,20.2 µM
same,GI50,HT29 colon,4.43 µM
same,TGI,HT29 colon,14.5 µM
same,GI50,HL-60(TB) leukemia,0.51 µM
same,TGI,HL-60(TB) leukemia,2.31 µM
same,GI50,CCRF-CEM leukemia,1.22 µM
same,TGI,CCRF-CEM leukemia,4.57 µM
same,GI50,U251 CNS,1.85 µM
same,TGI,U251 CNS,3.91 µM
same,GI50,TK-10 renal,2.64 µM
same,TGI,TK-10 renal,7.27 µM
same,GI50,SK-MEL-28 melanoma,1.58 µM
same,TGI,SK-MEL-28 melanoma,5.24 µM
same,GI50,NCI-H23 lung,1.53 µM
same,TGI,NCI-H23 lung,4.05 µM
same,GI50,SK-OV-3 ovarian,12 µM
same,TGI,SK-OV-3 ovarian,25.1 µM
same,GI50,K-562 leukemia,1.67 µM
same,TGI,K-562 leukemia,6.64 µM
same,GI50,COLO 205 colon,2.55 µM
same,TGI,COLO 205 colon,5.7 µM
same,GI50,HCT-15 colon,2.24 µM
same,TGI,HCT-15 colon,5.82 µM
same,GI50,UO-31 renal,6.17 µM
same,TGI,UO-31 renal,19 µM
same,GI50,OVCAR-4 ovarian,13.2 µM
same,TGI,OVCAR-4 ovarian,26 µM
same,GI50,786-0 renal,1.86 µM
same,TGI,786-0 renal,3.73 µM
same,GI50,DMS 114 small cell lung,1.72 µM
same,TGI,DMS 114 small cell lung,3.59 µM
same,GI50,EKVX NSCLC,2.39 µM
same,TGI,EKVX NSCLC,8.77 µM
same,GI50,MALME-3M melanoma,0.941 µM
same,TGI,MALME-3M melanoma,3.51 µM
same,GI50,SF-295 CNS,2.1 µM
same,TGI,SF-295 CNS,6.3 µM
same,GI50,RPMI-8226 leukemia,0.312 µM
same,TGI,RPMI-8226 leukemia,3.62 µM
same,GI50,KM12 colon,3.77 µM
same,TGI,KM12 colon,14.4 µM
same,GI50,MOLT-4 leukemia,1.64 µM
same,TGI,MOLT-4 leukemia,6.07 µM
same,GI50,NCI-H522 lung,0.259 µM
same,TGI,NCI-H522 lung,0.93 µM
same,GI50,LOX IMVI melanoma,1.68 µM
same,TGI,LOX IMVI melanoma,3.63 µM
same,GI50,KM20L2 colon,5.33 µM
same,TGI,KM20L2 colon,18.2 µM
same,GI50,OVCAR-5 ovarian,11.2 µM
same,TGI,OVCAR-5 ovarian,23.3 µM
same,GI50,SW-620 colon,1.63 µM
same,TGI,SW-620 colon,3.48 µM
same,GI50,SNB-75 CNS,2.76 µM
same,TGI,SNB-75 CNS,7.74 µM
same,GI50,M14 melanoma,2.3 µM
same,TGI,M14 melanoma,5.51 µM
same,GI50,NCI-H226 lung,15.4 µM
same,TGI,NCI-H226 lung,29.5 µM
same,GI50,OVCAR-8 ovarian,2.61 µM
same,TGI,OVCAR-8 ovarian,6.59 µM
same,GI50,HCT-116 colon,3.75 µM
same,TGI,HCT-116 colon,13.5 µM
same,GI50,XF 498 CNS,1.74 µM
same,TGI,XF 498 CNS,3.23 µM
same,GI50,A498 renal,2.77 µM
same,TGI,A498 renal,8.22 µM
same,GI50,SK-MEL-5 melanoma,3.09 µM
same,TGI,SK-MEL-5 melanoma,14.2 µM
same,GI50,ACHN renal,2.22 µM
same,TGI,ACHN renal,4.39 µM
same,GI50,M19-MEL melanoma,2.83 µM
same,TGI,M19-MEL melanoma,15.6 µM
same,GI50,A549 NSCLC,15.3 µM
same,TGI,A549 NSCLC,28.9 µM
same,GI50,SNB-78 CNS,2.61 µM
same,TGI,SNB-78 CNS,7.46 µM
same,GI50,DMS 273 small cell lung,2.81 µM
same,TGI,DMS 273 small cell lung,11 µM
same,GI50,UACC-257 melanoma,1.88 µM
same,TGI,UACC-257 melanoma,5.27 µM
same,GI50,UACC-62 melanoma,1.7 µM
same,TGI,UACC-62 melanoma,3.69 µM
same,GI50,CAKI-1 renal,1.51 µM
same,TGI,CAKI-1 renal,4.45 µM
same,GI50,SN12C renal,3.5 µM
same,TGI,SN12C renal,11.7 µM
same,GI50,HOP-62 NSCLC,4.04 µM
same,TGI,HOP-62 NSCLC,19.4 µM
